Test results: patent EP0142732B1, “Pheophorbide derivatives and pharmaceutical preparations containing them” (TOYO HAKKA KOGYO KABUSHIKI KAISHA, priority 1983, dated 1985)

Test system: nitrosamine-induced cancer cells of the pancreas
Test: N2 pulsed laser spectro-fluorometry of removed organs after administration to tumour-bearing hamsters
Assay type: in vivo, golden hamsters
Details: 24 hours after administration; 5 mg in 1 ml physiological saline
Protocol: Five mg of the test drug sodium 9-desoxo-9-hydroxy pheophorbide diluted in physiological saline (1 ml) was administered (1 ml) to golden hamsters (5 each for a group) 14-21 days after transplantation of nitrosamine-induced cancer cells of the pancreas, after which cancer cells and other organs were removed. N2-pulsed laser (N2 337 nm, 2 ns 400-1000 nm) was irradiated to each organ thus obtained to measure N2 pulsed laser spectro-fluorometry.
N2 pulsed laser spectro-fluorometry of each removed organ was measured 24 hours and 48 hours afterwards to investigate the wavelengths of 600 to 900 nm based on the peak wavelengths of NADH of 470 nm.
Golden hamsters (5 per one group) 14-21 days after transplantation of nitrosamine-induced cancer cells of the pancreas were administered 5 mg each of sodium 2-desethenyl-2-(1-hydroxyethyl) pheophorbide (sodium salt of (2)), sodium 2-desethynyl-2-(1-hydroxyethyl)-9-desoxo-9-hydroxy pheophorbide (sodium salt (3)), sodium 2-desethenyl-2-(1-acetyloxyethyl)-9-desoxo-9-acetyloxy pheophorbide (sodium salt of (4)), sodium ethylene glycol mono-10b-pheophorbate (sodium salt of (8)), disodium ethylene glycol di-10b-pheophorbate (sodium salt of (10)) and sodium N-phenylalanine 10b-methyl pheophorbid amide (sodium salt of (9)) respectively diluted with physiological saline (1 ml). Cancer cells and other organs were removed, irradiated with N2-pulsed laser (N2, 337 nm, 2 ns 400-1000 nm) to measure N2 pulsed laser spectro fluorometry. Using the. NADH peak wavelength of 470 nm as the reference, wavelengths in the range of from 600-900 nm were studied.
Various organs were removed 24 hours after administration and their N2 pulsed laser spectro-fluorometry was measured.

Question: C=Cc1c(C)c2cc3nc(c4c5[nH]c(cc6nc(cc1[nH]2)C(C)=C6CC)c(C)c5C(O)C4C(=O)OC)C(CCC(=O)O)C3C (stereo not shown) [9-Desoxo-9-hydroxy-pheophorbate (11), 9-desoxo-9-hydroxy-pheophorbide] was tested. Which “accumulation in cancer cells and other organs (N2 pulsed laser spectro-fluorometry)” value did it give?
Answer: generally found in organs

Same assay, conditions: 48 hours after administration; 5 mg in 1 ml physiological saline

Question: For C=Cc1c(C)c2cc3nc(c4c5[nH]c(cc6nc(cc1[nH]2)C(C)=C6CC)c(C)c5C(O)C4C(=O)OC)C(CCC(=O)O)C3C (stereo not shown) [9-Desoxo-9-hydroxy-pheophorbate (11), 9-desoxo-9-hydroxy-pheophorbide], which “accumulation in cancer cells and other organs (N2 pulsed laser spectro-fluorometry)” value is on record?
Answer: markedly accumulated in cancer cells alone but not in other cells

Same assay, conditions: sodium compounds; organs removed 24 hours after administration; N2 337 nm laser, 600-900 nm

Question: With C=Cc1c(C)c2cc3nc(c4c5[nH]c(cc6nc(cc1[nH]2)C(C)=C6CC)c(C)c5C(=O)C4)C(CCC(=O)O)C3C (stereo not shown) [Pyropheophorbide, reference compound] as the compound, how does the “N2 pulsed laser spectro-fluorometry, wavelengths calculated using the NADH peak wavelength of 470 nm as the reference” value read?
Answer: 0.25

Question: C=Cc1c(C)c2cc3nc(c4c5[nH]c(cc6nc(cc1[nH]2)C(C)=C6CC)c(C)c5C(O)C4C(=O)OCCOC(=O)C1c2c4nc(cc5[nH]c(cc6nc(cc7[nH]c2c(c7C)C1O)C(CC)=C6C)c(C=C)c5C)C(C)C4CCC(=O)O)C(CCC(=O)O)C3C (stereo not shown) [Ethylene glycol di-10b-9-desoxo-9-hydroxypheophorbate] was tested. Which “N2 pulsed laser spectro-fluorometry, wavelengths calculated using the NADH peak wavelength of 470 nm as the reference” value did it give?
Answer: 2.50

Question: C=Cc1c(C)c2cc3nc(c4c5[nH]c(cc6nc(cc1[nH]2)C(C)=C6CC)c(C)c5C(O)C4)C(CCC(=O)O)C3C (stereo not shown) [9-Desoxo-9-hydroxy-pyropheophorbide] was tested. Which “N2 pulsed laser spectro-fluorometry, wavelengths calculated using the NADH peak wavelength of 470 nm as the reference” value did it give?
Answer: 0.98

Question: For C=Cc1c(C)c2cc3nc(c4c5[nH]c(cc6nc(cc1[nH]2)C(C)=C6CC)c(C)c5C(O)C4C(=O)NC(Cc1ccccc1)C(=O)O)C(CCC(=O)OC)C3C (stereo not shown) [N-Phenylalanine 10b-9-desoxo-9-hydroxy-methylpheophorbidamide], which “N2 pulsed laser spectro-fluorometry, wavelengths calculated using the NADH peak wavelength of 470 nm as the reference” value is on record?
Answer: 0.73

Question: Which “N2 pulsed laser spectro-fluorometry, wavelengths calculated using the NADH peak wavelength of 470 nm as the reference” value does the source give for “Ethylene glycol di-10b-2-desethenyl-2-(1-hydroxyethyl)-pheophorbate” here?
Answer: 2.50

Question: How did the “N2 pulsed laser spectro-fluorometry, wavelengths calculated using the NADH peak wavelength of 470 nm as the reference” value turn out when C=Cc1c(C)c2cc3nc(c4c5[nH]c(cc6nc(cc1[nH]2)C(C)=C6CC)c(C)c5C(=O)C4C(=O)NC(Cc1ccccc1)C(=O)O)C(CCC(=O)OC)C3C (stereo not shown) [N-phenylalanine 10b-methylpheophorbidamide] was run?
Answer: 0.75

Question: With 9-Desoxo-9-hydroxy-pheophorbide C as the compound, how does the “N2 pulsed laser spectro-fluorometry, wavelengths calculated using the NADH peak wavelength of 470 nm as the reference” value read?
Answer: 0.32

Question: For “Monoacetylethylene glycol mono-10b-9-desoxo-9-acetyloxy-pheophorbate”, which “N2 pulsed laser spectro-fluorometry, wavelengths calculated using the NADH peak wavelength of 470 nm as the reference” value is on record?
Answer: 0.85

Question: For C=Cc1c(C)c2cc3nc(c4c5[nH]c(cc6nc(cc1[nH]2)C(C)=C6CC)c(C)c5C(=O)C4C(=O)OCCO)C(CCC(=O)O)C3C (stereo not shown) [ethylene glycol mono-10b-pheophorbate], which “N2 pulsed laser spectro-fluorometry, wavelengths calculated using the NADH peak wavelength of 470 nm as the reference” value is on record?
Answer: 1.72

Question: C=Cc1c(C)c2cc3nc(c4c5[nH]c(cc6nc(cc1[nH]2)C(C)=C6CC)c(C)c5C(O)C4C(=O)OCCO)C(CCC(=O)O)C3C (stereo not shown) [Ethylene glycol mono-10b-9-desoxo-9-hydroxy-pheophorbate] was tested. Which “N2 pulsed laser spectro-fluorometry, wavelengths calculated using the NADH peak wavelength of 470 nm as the reference” value did it give?
Answer: 2.10

Question: For C=Cc1c(C)c2cc3nc(c4c5[nH]c(cc6nc(cc1[nH]2)C(C)=C6CC)c(C)c5C(=O)C4C(=O)OC)C(CCC(=O)O)C3C (stereo not shown) [Pheophorbide (1), pheophorbide], which “N2 pulsed laser spectro-fluorometry, wavelengths calculated using the NADH peak wavelength of 470 nm as the reference” value is on record?
Answer: 0.78

Question: With CCC1=C(C)c2cc3[nH]c(cc4nc(c5c6[nH]c(cc1n2)c(C)c6C(=O)C5C(=O)OC)C(CCC(=O)O)C4C)c(C)c3C(C)O (stereo not shown) [2-desethenyl-2-(1-hydroxyethyl)-pheophorbide] as the compound, how does the “N2 pulsed laser spectro-fluorometry, wavelengths calculated using the NADH peak wavelength of 470 nm as the reference” value read?
Answer: 1.90

Question: How did the “N2 pulsed laser spectro-fluorometry, wavelengths calculated using the NADH peak wavelength of 470 nm as the reference” value turn out when CCC1=C(C)c2cc3[nH]c(cc4nc(c5c6[nH]c(cc1n2)c(C)c6C(O)C5C(=O)OC)C(CCC(=O)O)C4C)c(C)c3C(C)OC(C)=O (stereo not shown) [2-Desethenyl-2-(1-acetyloxyethyl)-9-desoxo-9-hydroxy-pheophorbide] was run?
Answer: 0.95

Question: How did the “N2 pulsed laser spectro-fluorometry, wavelengths calculated using the NADH peak wavelength of 470 nm as the reference” value turn out when C=Cc1c(C)c2cc3nc(c4c5[nH]c(cc6nc(cc1[nH]2)C(C)=C6CC)c(C)c5C(OC(C)=O)C4C(=O)OC)C(CCC(=O)O)C3C (stereo not shown) [9-Desoxo-9-acetyloxy-pheophorbide, 9-desoxo-9-acetyloxy-pheophorbide] was run?
Answer: 0.89

Question: How did the “N2 pulsed laser spectro-fluorometry, wavelengths calculated using the NADH peak wavelength of 470 nm as the reference” value turn out when C=Cc1c(C)c2cc3nc(c4c5[nH]c(cc6nc(cc1[nH]2)C(C)=C6CC)c(C)c5C(=O)C4C(=O)OCCOC(C)=O)C(CCC(=O)O)C3C (stereo not shown) [Monoacetylethylene glycol mono-10b-pheophorbate] was run?
Answer: 1.30

Question: Which “N2 pulsed laser spectro-fluorometry, wavelengths calculated using the NADH peak wavelength of 470 nm as the reference” value does the source give for CCC1=C(C)c2cc3[nH]c(cc4nc(c5c6[nH]c(cc1n2)c(C)c6C(O)C5C(=O)OC)C(CCC(=O)O)C4C)c(C)c3C(C)O (stereo not shown) [2-desethenyl-2-(1-hydroxyethyl)-9-desoxo-9-hydroxy-pheophorbide] here?
Answer: 3.13

Question: How did the “N2 pulsed laser spectro-fluorometry, wavelengths calculated using the NADH peak wavelength of 470 nm as the reference” value turn out when C=Cc1c(C)c2cc3nc(c4c5[nH]c(cc6nc(cc1[nH]2)C(C)=C6CC)c(C)c5C(O)C4C(=O)OC)C(CCC(=O)O)C3C (stereo not shown) [9-Desoxo-9-hydroxy-pheophorbate (11), 9-desoxo-9-hydroxy-pheophorbide] was run?
Answer: 0.93

Question: With CCC1=C(C)c2cc3[nH]c(cc4nc(c5c6[nH]c(cc1n2)c(C)c6C(OC(C)=O)C5C(=O)OC)C(CCC(=O)O)C4C)c(C)c3C(C)OC(C)=O (stereo not shown) [2-Desethenyl-2-(1-acetyloxyethyl)-9-desoxo-9-acetyloxypheophorbide] as the compound, how does the “N2 pulsed laser spectro-fluorometry, wavelengths calculated using the NADH peak wavelength of 470 nm as the reference” value read?
Answer: 0.48

Question: For “Ethylene glycol di-10b-2-desethenyl-2-(1-hydroxyethyl)-9-desoxo-9-hydroxy-pheophorbate”, which “N2 pulsed laser spectro-fluorometry, wavelengths calculated using the NADH peak wavelength of 470 nm as the reference” value is on record?
Answer: 1.80

Question: With C=Cc1c(C)c2cc3nc(c4c5[nH]c(cc6nc(cc1[nH]2)C(C)=C6CC)c(C)c5C(=O)C4C(=O)OCCOC(=O)C1C(=O)c2c(C)c4cc5nc(cc6[nH]c(cc7nc(c1c2[nH]4)C(CCC(=O)O)C7C)c(C)c6C=C)C(C)=C5CC)C(CCC(=O)O)C3C (stereo not shown) [Ethylene glycol di-10b-pheophorbate (10), ethylene glycol di-10b-pheophorbate] as the compound, how does the “N2 pulsed laser spectro-fluorometry, wavelengths calculated using the NADH peak wavelength of 470 nm as the reference” value read?
Answer: 2.78

Question: How did the “N2 pulsed laser spectro-fluorometry, wavelengths calculated using the NADH peak wavelength of 470 nm as the reference” value turn out when “Monoacetylethylene glycol mono-10b-9-desoxo-9-hydroxy-pheophorbate” was run?
Answer: 1.20

Test system: leukemic Molt 4 Cell
Test: Biochemiluminescence by single photoncounter system after laser irradiation (destruction of cancer cells)
Assay type: cell-based
Details: Homo sapiens, 100 µg/2 ml, incubated 24 hours at 37°C, He-Ne laser 630 nm, 10 min, 20 mW, read-out: cancer cells destroyed
Protocol: Sodium 9-desoxo-9-hydroxy pheophorbide dissolved in physiological saline of respective concentrations (25 µg/2 ml, 50 µg/2 ml, […]) was added to leukemic Molt 4 Cell ([…] Cells) and the resultant product was incubated for 24 hours at 37°C.
Each incubated cell thus obtained was irradiated with laser (He-Ne gas, 630 nm, 10 min, 20 mW) and trace biochemiluminescence was measured by single photoncounter system.
Intensity of biochemiluminescence substantially correponds to the degree of destructive effect on cancer cells and thus by studying the biochemiluminescence by single photoncounter system, it is possible to predict the destructive effect on cancer cells.
Leukemic Molt 4 cell ([…] cells) was added with physiological saline containing sodium 2- desethenyl-2-(1-hydroxyethyl) pheophorbide (sodium salt of (2)) in respective concentrations ([…], 100 µg/2 ml) and then incubated (37°C, 24 hours). Incubated cells each were irradiated with laser ([…], 630 nm, 10 min, 20 mW) to investigate generation of biochemiluminescence by single photoncounter system by measuring biochemiluminescence; The intensity of biochemiluminescence by single photoncounter system substantially corresponds to the degree of destruction of the cancer cells. […]

Question: For CCC1=C(C)c2cc3[nH]c(cc4nc(c5c6[nH]c(cc1n2)c(C)c6C(=O)C5C(=O)OC)C(CCC(=O)O)C4C)c(C)c3C(C)O (stereo not shown) [2-desethenyl-2-(1-hydroxyethyl)-pheophorbide], which cytotoxicity at 50 µg/mL is on record?
Answer: > 95%

Question: How did the cytotoxicity at 50 µg/mL turn out when C=Cc1c(C)c2cc3nc(c4c5[nH]c(cc6nc(cc1[nH]2)C(C)=C6CC)c(C)c5C(O)C4C(=O)OC)C(CCC(=O)O)C3C (stereo not shown) [9-Desoxo-9-hydroxy-pheophorbate (11), 9-desoxo-9-hydroxy-pheophorbide] was run?
Answer: > 95%
